The text below walks through data of patent US4119729A, “Alkylsulfonylphenoxypropanolamine therapeutic process” (Mead Johnson & Company, priority 1977, dated 1978).

The ED50 is the midpoint of the dose-response relation. By LD50 is commonly meant the dose expected to kill half of the subjects tested.

The test system of data set [1] is spontaneous hypertensive rat. Put plainly: blood pressure lowering in the spontaneous hypertensive rat. The data set is classed as in vivo. To be noted: oral dose of 100 mg./kg. body weight. As for the experimental part: For the purpose of treating hypertension in a mammal, the antihypertensive process of the instant invention is carried out by systemically administering to a mammal in need of such treatment an antihypertensive effective amount of a compound selected from the group characterized by Formula I or preferably by Formula X or a pharmaceutically acceptable non-toxic acid addition salt thereof. By systemic administration, it is intended to include both oral and parenteral routes. Examples of parenteral administration are intramuscular, intravenous, intraperitoneal,rectal, and subcutaneous administration. The dosage will vary with the form of administration and the particular compound chosen. However, from about 0.3 mg. per kg. body weight to 100 mg. per kg. body weight of a compound characterized by Formula I administered in effective single or multiple dosage units is generally satisfactory. In accordance with conventional clinical practice, the antihypertensive agent is administered at a dosage substantially less than the dose of the compound thought to be effective. Thereafter, the dosage is increased by small increments until the optimum antihypertensive effect under the circumstances is reached. At effective antihypertensive dosage levels, the compounds of this invention are substantially free of harmful or deleterious side effects. […]

Data set [2] deals with β-Adrenergic Receptor. Put plainly: spontaneously beating rabbit atrial preparation, β-adrenergic receptor antagonist molar potency. The text has this: (§1) Cardioselective β1 -adrenergic blocking activity of the compounds of the present invention can be assessed in standard in vitro pharmacological test systems such as the spontaneously beating rabbit atrial preparation and the guinea pig tracheal preparation.
(§2) A Comparison of β-Adrenergic Receptor Antagonist Molar
(§3) Potencies Determined in Rabbit Atrial and Guinea
(§4) Pig Tracheal Preparations

In data set [3] the test system is β-Adrenergic Receptor. Put plainly: guinea pig tracheal preparation, β-adrenergic receptor antagonist molar potency. Conditions: molar potency relative to propranolol = 1.
Description: as §1, §2, §3, §4

Data set [4] concerns isoproterenol-induced increased contractile force and heart rate. Put plainly: inhibition of isoproterenol-induced increased contractile force and heart rate in the anesthetized dog. Format: in vivo. To be noted: Canis lupus familiaris, intravenous, isoproterenol challenge 0.2 mcg./kg. intravenous. The text has this: A preferred compound of this invention, 1-(isopropylamino)-3-[4-(methylsulfonyl)-3-tolyloxy]-2-propanol hydrochloride, inhibits increased contractile force and heart rate in the anesthetized dog induced by a standard challenge dose of 0.2 mcg./kg.

A short description of data set [5]: acute toxicity (LD50) in the mouse. To be noted: in vivo.
Data set [6] is described as follows: acute toxicity (LD50) in the rat. To be noted: in vivo, po.

Read-outs that look alike come from different tables or passages of the source.

Consider `Cc1cc(OCC(O)CNC(C)COc2ccccc2)ccc1S(C)(=O)=O` (stereo not drawn) [3-[4-(methylsulfonyl)-m-tolyloxy]-1-(1-phenoxy-2-propylamino)-2-propanol], for which, in data set [1], the lowered blood pressure result is “about 22.4 mm Hg”.

With `Cc1cc(OCC(O)CNC(C)C)ccc1S(C)(=O)=O.Cl` (stereo not drawn) [1-(ISOPROPYLAMINO)-3-[4-(METHYLSULFONYL)-m-TOLYLOXY]-2-PROPANOL HYDROCHLORIDE], the “Potency Ratio Atria” value in data set [2] (molar potency relative to propranolol = 1, rabbit atrial preparation) turned out to be 0.37. Further, in data set [2] (ratio of potency ratios, rabbit atria / guinea pig trachea), the “Cardioselectivity Ratio: Atria/Trachea” value amounted to 37. For the same compound, in data set [3], the “Potency Ratio Trachea” value is 0.01. Further, the ED50 turned out to be 0.71 mg/kg in data set [4] (read-out: ED50, inhibition of increased contractile force) and 2.02 mg/kg in data set [4] (read-out: ED50, inhibition of increased heart rate). Further, the LD50 is 339 mg/kg in data set [5] (ip, read-out: intraperitoneal LD50); 1500 mg/kg in data set [5] (po, read-out: oral LD50); 1790 mg/kg in data set [6].
